These results are taken from US20120093806A1, “ANTITUMOR COMBINATIONS CONTAINING ANTIBODIES RECOGNIZING SPECIFICALLY CD38 AND CYTARABINE” (SANOFI-AVENTIS, priority 2008, published 2012).

The conditions of data set [1]: days 18, 21, 24, 27; for BWC = body weight change: day in parentheses in cell. The procedure:
The animals subjected to the experiment, generally mice, are subcutaneously grafted bilaterally with 30 to 60 mg of a tumor fragment on day 0. The animals bearing tumors are randomized based on their tumor size before being subjected to the various treatments and controls. Chemotherapy begins when tumors have reached a predetermined size after grafting, depending on the type of tumor, and the animals are observed every day. […] The groups are then weighed once or twice a week until the end of the trial.
The selected tumor model was a transplantable human T-cell acute lymphoblastic leukemia (T-ALL) cell line, DND-41, implanted in SCID mice.
Hu38SB19 was formulated in phosphate buffer saline, without Ca^2+ and Mg^2+, pH7.4. Hu38SB19 was administered intravenously on days 18, 21, 24, 27 after tumor implantation.

In data set [2] the test system is human T-cell acute lymphoblastic leukemia (T-ALL) cell line, DND-41. Put plainly: Antitumor efficacy against advanced DND-41 tumors implanted in SCID mice. The data set is classed as in vivo. To be noted: days 18, 21, 24, 27; for TFS = tumor free survivors: day 160; for T-C = tumor growth delay: median time to reach 750 mg. Here is the method:
This efficacy may be quantified, for example, by the log10 cell kill, which is determined according to the following formula:
log10 cell kill=T−C (days)/3.32×Td
in which T−C represents the tumor growth delay, which is the median time in days for the tumors of the treated group (T) and the tumors of the control group (C) to reach a predetermined value (1 g for example), and Td represents the time in days needed for the volume of the tumor to double in the control animals [T. H. Corbett et al., Cancer, 40: 2660-2680 (1977); F. M. Schabel et al., Cancer Drug Development, Part B, Methods in Cancer Research, 17: 3-51, New York, Academic Press Inc. (1979)]. A product is considered to be active if log10 cell kill is greater than or equal to 0.7. A product is considered to be very active if log10 cell kill is greater than 2.8.
The tumors are measured 1 to 5 times a week, depending on the tumor doubling time, until the tumor reaches approximately 2 g, or until the animal dies (if this occurs before the tumor reaches 2 g). The animals are necropsied immediately after euthanasia or death.
Tumor doubling time=3.4 days.

Setting [3] is: hu38SB19 40.0 mg/kg/inj IV (total 160.0).
[4] abbreviates: Palmo Ara-C 22.3 mg/kg/inj SC (total 89.2).
Where [5] appears, read: Palmo Ara-C 36.0 mg/kg/inj SC (total 144.0).
[6] abbreviates: Palmo Ara-C 58.0 mg/kg/inj SC (total 232.0).

Where “and” joins values, the source holds several entries; their conditions need not be identical. Identical values can stand only once. Like-named read-outs stand apart in the source and are kept apart here.

Take “hu38SB19: humanized 38SB19 anti-CD38 antibody; VH SEQ ID NO: 66, VL chosen from SEQ ID NOS: 62 and 64”: in data set [1] (setting [3]), the “drug death (deaths/mice treated)” value was 0/6 and the “BWC = body weight change” value is −2.1 (19). In data set [2] (setting [3]), the log10 cell kill worked out at 0.5, the “TFS = tumor free survivors” value is listed as 0/6 and the “T-C = tumor growth delay” value came out at 6.1 days. The “comment (activity class)” value in data set [2] (hu38SB19 40.0 mg/kg/inj IV (total 160.0), highest dose tested, 40 mg/kg) is recorded as “HDT—Inactive”. Besides, the “comment (activity class)” value in data set [2] (hu38SB19 40.0 mg/kg/inj IV (total 160.0), highest dose tested, listed as hu38 DB19) is reported as “not active”.

As for `CCCCCCCCCCCCCCCC(=O)Nc1ccn([C@@H]2O[C@H](CO)[C@@H](O)[C@@H]2O)c(=O)n1` [Palmo Ara-C], the “BWC = body weight change” value in data set [1] (setting [4]) is −0.5 (32); in data set [1] (setting [5]), −4.6 (30); in data set [1] (setting [6]), −6.1 (31); in data set [1] (Palmo Ara-C 96.3 mg/kg/inj SC (total 385.2)), −26.6 (31). Moreover, in data set [1] (Palmo Ara-C alone, SC), the “highest nontoxic dose (HNTD)” value was 58.0 mg/kg/inj. Besides, the “comment (activity class)” value is on record as “Active” in data set [2] (setting [4]) and “HNTD—highly active” in data set [2] (Palmo Ara-C 58.0 mg/kg/inj SC (total 232.0), HNTD). In addition, the log10 cell kill is recorded as 2.0 in data set [2] (setting [4]), 4.3 in data set [2] (setting [5]) and 5.4 in data set [2] (setting [6]). Also, the “TFS = tumor free survivors” value in data set [2] (setting [4]) was 0/6; in data set [2] (setting [5]), “no TFS and 0/6”; in data set [2] (setting [6]), 3/6. Further, the “T-C = tumor growth delay” value in data set [2] (setting [4]) worked out at 22.1 days; in data set [2] (setting [5]) it was 48.6 days; in data set [2] (setting [6]), 60.5 days.
